Experimental data taken from ChEMBL document CHEMBL1201862, “PubChem BioAssay data set” (2004).
Active and inactive are the calls of the source.

Key:
[1] = viability loss in HepG2 hepatoma cells – cell-based, cherry-picks, set 5, cytotoxicity control, dose response (AID 1053118); assay type: functional
[2] = viability of HCT116 lacking mutant beta-catenin – cell-based, human colon tumor, dose response (AID 1045); assay type: functional;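 also: HCT116 colon tumor cells with beta catenin knocked out; cells exposed to compound for 60 hours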
[3] = loss of viability in HepG2 cells – cell-based, CellTiter-Glo, cherry-picked, cytotoxicity control for Shn3 inhibitor project, dose response (AID 624134); assay type: functional
[4] = blockers of FN fibrillogenesis by fibroblasts – AH1F cells, Alexa488-FN fluorescence, cherry-picks, dose response (AID 1035475); assay type: functional, cell-based
[5] = reduction of Shn3 3'UTR-driven luciferase in osteoblasts – cell-based, Clone20 osteoblasts, firefly luciferase, cherry-picked, dose response (AID 624132); assay type: functional;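 also: firefly luciferase luminescence from reporter carrying the Shn3 3'UTR in osteoblasts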
[6] = viability of PTEN-deleted HCT116 cells – cell-based, HCT116 PTEN knockout, dose response (AID 1047); assay type: functional;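 also: HCT116 colon tumor cells with PTEN knocked out; cells exposed to compound for 60 hours before readout; potency for loss of cell viability measured by luminescence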
[7] = non-specific 3'UTR reporter inhibition in Clone20-Shn3RL – cell-based, Renilla luciferase, cherry-picked, counter-screen for Shn3 inhibitor project, dose response (AID 624133); assay type: functional
A-375 [8] = experiment: proliferation inhibition in MITF-low A375 cells – cell-based, cherry-pick samples, set 2, counter-screen for MITF modulator project, dose response (AID 540335); assay type: functional; conditions: Homo sapiens
[9] = target: T1, Microphthalmia-associated transcription factor (Homo sapiens, UniProt O75030); experiment: reducers of TRPM1 reporter luminescence, concentration series – cell-based, SK-MEL-5, cherry-picked, set 3, MITF inhibitor project, dose response (AID 493073); assay type: functional;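 also: SK-MEL-5 melanoma cells with luciferase driven by the MITF target TRPM1 promoter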
T1 sequence (O75030 whole entry): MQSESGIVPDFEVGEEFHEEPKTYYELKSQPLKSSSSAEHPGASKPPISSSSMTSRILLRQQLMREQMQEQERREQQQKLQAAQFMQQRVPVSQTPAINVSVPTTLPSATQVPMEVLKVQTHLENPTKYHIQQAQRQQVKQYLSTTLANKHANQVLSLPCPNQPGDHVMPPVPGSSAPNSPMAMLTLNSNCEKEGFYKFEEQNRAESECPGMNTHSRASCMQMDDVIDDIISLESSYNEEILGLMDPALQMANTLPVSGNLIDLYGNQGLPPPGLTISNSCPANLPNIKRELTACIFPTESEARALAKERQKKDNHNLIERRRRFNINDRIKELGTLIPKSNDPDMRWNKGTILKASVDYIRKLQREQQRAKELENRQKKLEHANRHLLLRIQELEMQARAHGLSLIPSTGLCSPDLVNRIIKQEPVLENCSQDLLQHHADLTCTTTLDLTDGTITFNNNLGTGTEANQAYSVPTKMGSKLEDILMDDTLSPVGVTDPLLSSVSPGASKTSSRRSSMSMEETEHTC

A-375 [10] = experiment: MITF: Counter assay: A375 proliferation Measured in Cell-Based System Using Plate Reader - 2084-03_Inhibitor_Dose_DryPowder_Activity. [Related pubchem assays (depositor defined):AID488944]; assay type: functional; conditions: Homo sapiens
Protein skinhead-1 = target: T2, Protein skinhead-1 (Caenorhabditis elegans, UniProt P34707); assay type: functional
T2 sequence (P34707 whole entry): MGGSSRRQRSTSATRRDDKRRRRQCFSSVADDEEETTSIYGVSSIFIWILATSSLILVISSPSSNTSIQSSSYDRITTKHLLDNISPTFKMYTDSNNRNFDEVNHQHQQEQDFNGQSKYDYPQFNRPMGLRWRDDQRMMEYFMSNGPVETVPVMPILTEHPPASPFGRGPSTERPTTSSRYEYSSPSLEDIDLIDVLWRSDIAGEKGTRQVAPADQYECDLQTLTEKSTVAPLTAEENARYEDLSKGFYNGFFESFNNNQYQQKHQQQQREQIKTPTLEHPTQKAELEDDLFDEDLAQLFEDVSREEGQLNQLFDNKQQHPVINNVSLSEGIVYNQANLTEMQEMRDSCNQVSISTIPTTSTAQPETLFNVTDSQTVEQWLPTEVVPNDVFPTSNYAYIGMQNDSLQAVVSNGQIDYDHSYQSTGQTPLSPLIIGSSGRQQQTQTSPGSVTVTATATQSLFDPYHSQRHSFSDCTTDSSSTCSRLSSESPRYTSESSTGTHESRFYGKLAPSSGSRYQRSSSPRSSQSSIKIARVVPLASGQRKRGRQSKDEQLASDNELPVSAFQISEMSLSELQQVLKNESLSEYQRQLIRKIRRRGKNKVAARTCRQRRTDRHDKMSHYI

Fibrinogen beta chain [11] = target: T3, Fibrinogen beta chain (Homo sapiens, UniProt P02675); experiment: Fluorescence polarization-based biochemical high throughput dose response assay to identify inhibitors that disrupt the binding of a cyclic peptide (Tn6) to the fibrin proteolytic product D-Dimer and fragment E complex [DD(E )].
T3 sequence (P02675 whole entry, the tested form may be a part): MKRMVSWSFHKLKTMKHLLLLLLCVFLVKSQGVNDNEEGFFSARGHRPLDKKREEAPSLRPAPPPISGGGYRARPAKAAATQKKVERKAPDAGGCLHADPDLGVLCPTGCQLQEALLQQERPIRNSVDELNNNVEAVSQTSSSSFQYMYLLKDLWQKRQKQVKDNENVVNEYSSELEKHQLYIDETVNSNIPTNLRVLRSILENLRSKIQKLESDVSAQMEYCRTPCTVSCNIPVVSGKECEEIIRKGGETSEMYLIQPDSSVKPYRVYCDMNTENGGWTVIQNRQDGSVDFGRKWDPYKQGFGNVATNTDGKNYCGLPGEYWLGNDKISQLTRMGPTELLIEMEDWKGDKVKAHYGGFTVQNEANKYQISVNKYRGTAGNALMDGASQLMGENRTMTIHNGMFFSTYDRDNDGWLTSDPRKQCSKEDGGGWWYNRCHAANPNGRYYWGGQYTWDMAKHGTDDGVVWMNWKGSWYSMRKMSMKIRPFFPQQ

Fibrinogen beta chain [12] = target: T3, Fibrinogen beta chain; experiment: Fluorescence polarization-based biochemical high throughput dose response assay to identify inhibitors that disrupt the binding of a cyclic peptide (Tn7) to the fibrin proteolytic product D-Dimer and fragment E complex [DD(E )].
[13] = Shn3 3'UTR reporter signal decrease – cell-based, Clone20 osteoblasts, firefly luciferase, cherry-pick, set 2, Schnurri-3 inhibitor project, dose response (AID 720490); assay type: functional;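 also: actives lower the luminescence signal as inhibitors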
Protein Wnt-3a = Protein Wnt-3a (Mus musculus, UniProt P27467); experiment: antagonism of Wnt3a pathway luciferase reporter – Wnt-LIGHT cells, luminescence, selectivity assay for Gli-SUFU antagonist project, dose response (AID 651570); assay type: functional; conditions: read-out: IC50_Mean;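 also: Wnt-LIGHT reporter cells stimulated with conditioned medium from Wnt3a-producing cells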
Sequence of Protein Wnt-3a (P27467 whole entry): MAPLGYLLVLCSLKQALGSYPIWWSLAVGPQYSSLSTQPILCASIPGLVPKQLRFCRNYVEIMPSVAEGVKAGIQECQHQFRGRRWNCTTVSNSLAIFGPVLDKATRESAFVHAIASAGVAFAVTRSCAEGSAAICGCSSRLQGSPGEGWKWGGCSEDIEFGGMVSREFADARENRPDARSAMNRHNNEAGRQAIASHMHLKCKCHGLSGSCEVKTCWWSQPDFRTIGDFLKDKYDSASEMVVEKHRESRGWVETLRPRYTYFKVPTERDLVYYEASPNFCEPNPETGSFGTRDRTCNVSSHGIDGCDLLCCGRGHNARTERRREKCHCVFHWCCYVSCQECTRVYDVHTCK

[14] = target: T4, Small ubiquitin-related modifier 1 (Homo sapiens, UniProt P63165); experiment: SUMO1 protein-protein binding blockers, potency – biochemical, FRET, dose response (AID 624383); assay type: functional; conditions: read-out: IC50_Mean
T4 sequence (P63165 whole entry): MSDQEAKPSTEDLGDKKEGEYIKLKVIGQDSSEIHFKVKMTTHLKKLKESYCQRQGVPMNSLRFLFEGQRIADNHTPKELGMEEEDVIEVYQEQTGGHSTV

[15] = target: T4, Small ubiquitin-related modifier 1; experiment: SUMO1 protein interaction blockers, potency – biochemical, fluorescence polarization, uHTS hits, dose response (AID 624382); assay type: functional; conditions: read-out: IC50_Mean
[16] = target: Photoreceptor-specific nuclear receptor (Homo sapiens, UniProt Q9Y5X4); experiment: ligands suppressing NR2E3 nuclear receptor activity – biochemical, TR-FRET, dose response (AID 463256); assay type: functional
Sequence of Photoreceptor-specific nuclear receptor (Q9Y5X4 whole entry, the tested form may be a part): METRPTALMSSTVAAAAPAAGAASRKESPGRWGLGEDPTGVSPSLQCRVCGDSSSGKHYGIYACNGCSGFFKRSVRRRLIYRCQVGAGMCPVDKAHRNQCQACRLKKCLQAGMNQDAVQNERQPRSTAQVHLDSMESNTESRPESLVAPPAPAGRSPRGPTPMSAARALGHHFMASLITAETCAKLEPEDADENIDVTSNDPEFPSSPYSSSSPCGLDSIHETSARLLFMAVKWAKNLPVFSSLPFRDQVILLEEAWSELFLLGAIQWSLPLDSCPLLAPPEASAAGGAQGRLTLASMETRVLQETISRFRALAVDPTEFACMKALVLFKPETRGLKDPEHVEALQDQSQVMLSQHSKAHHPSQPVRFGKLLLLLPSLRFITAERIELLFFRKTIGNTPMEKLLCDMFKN

[17] = target: E3 ubiquitin-protein ligase UHRF1 (Homo sapiens, UniProt Q96T88); experiment: Counterscreen for inhibitors of 5-meCpG-binding domain protein 2 (MBD2): TRFRET-based biochemical high throughput dose response assay to identify inhibitors of binding of ubiquitin-like with PHD and ring finger domains 1 (UHRF1) to methylated oligonucleotide.
Sequence of E3 ubiquitin-protein ligase UHRF1 (Q96T88 whole entry, the tested form may be a part): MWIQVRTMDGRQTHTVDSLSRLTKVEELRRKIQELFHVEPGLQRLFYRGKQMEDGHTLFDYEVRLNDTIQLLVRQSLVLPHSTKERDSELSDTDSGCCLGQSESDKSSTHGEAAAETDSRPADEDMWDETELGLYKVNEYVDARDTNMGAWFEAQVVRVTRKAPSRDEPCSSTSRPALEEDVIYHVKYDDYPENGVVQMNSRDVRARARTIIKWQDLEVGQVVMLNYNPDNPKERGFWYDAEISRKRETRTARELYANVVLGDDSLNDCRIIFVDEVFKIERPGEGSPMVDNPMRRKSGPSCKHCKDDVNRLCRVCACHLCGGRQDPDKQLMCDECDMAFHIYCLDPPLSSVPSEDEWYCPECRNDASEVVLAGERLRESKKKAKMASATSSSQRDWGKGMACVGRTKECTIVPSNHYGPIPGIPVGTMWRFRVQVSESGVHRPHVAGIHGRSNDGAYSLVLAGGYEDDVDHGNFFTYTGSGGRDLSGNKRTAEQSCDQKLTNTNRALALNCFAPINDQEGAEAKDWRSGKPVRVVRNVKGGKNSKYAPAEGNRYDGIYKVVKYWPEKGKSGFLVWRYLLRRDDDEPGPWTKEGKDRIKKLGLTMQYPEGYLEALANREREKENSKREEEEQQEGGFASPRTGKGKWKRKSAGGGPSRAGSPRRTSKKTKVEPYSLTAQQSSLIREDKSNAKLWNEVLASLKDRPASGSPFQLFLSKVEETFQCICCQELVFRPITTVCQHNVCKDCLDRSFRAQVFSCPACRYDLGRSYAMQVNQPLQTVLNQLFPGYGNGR

[18] = target: Peroxisome proliferator-activated receptor gamma/Nuclear receptor corepressor 2 (Homo sapiens, UniProt P37231+Q9Y618); experiment: Counterscreen for NR2E3 inverse agonists: TR-FRET-based biochemical high throughput dose response assay to identify inverse agonists of the interaction between peroxisome proliferator-activated receptor gamma (PPARg) and nuclear receptor co-repressor 2 (NCOR2).; assay type: functional

Cn1cc([N+](=O)[O-])c(C(=O)Nc2cc(Oc3ccccc3)cc([N+](=O)[O-])c2)n1
AC50 [1]: 21.9 µM (active)
EC50 [2]: 0.309 µM (active)
AC50 [3]: 19.8 µM (active)
AC50 [4]: 12.3 µM (active)
AC50 [5]: 5.41 µM (active)
EC50 [6]: 0.389 µM (active)
AC50 [7]: 2.82 µM (active)
AC50 (A-375 [8]): > 35 µM (active)
AC50 [9]: 12.4 µM (active)
AC50 (A-375 [10]): > 35 µM (active)

c1ccc2c(c1)CCN(C1=Nc3cccc4cccc1c34)C2
IC50 (Protein skinhead-1): > 100 µM (inactive)
IC50 (Fibrinogen beta chain [11]): 46.1 µM (inactive)
IC50 (Fibrinogen beta chain [12]): > 83.3 µM (inactive)

CC(C)Cn1c(N)c(C(=O)COC(=O)C2Cc3ccccc3CN2S(C)(=O)=O)c(=O)n(C)c1=O (stereo not drawn)
AC50 [3]: > 70 µM (inactive)
AC50 [13]: 0.897 µM (active)
AC50 [5]: 0.72 µM (active)
AC50 [7]: 4.76 µM (active)
IC50 (Protein Wnt-3a): 6.31 µM (active)

N#CCC(=O)Nc1ccc(C(=O)OCC(=O)c2ccc3c(c2)NC(=O)CO3)cc1
IC50 [14]: 10.1 µM (active)
IC50 [15]: > 66.6 µM (inactive)
IC50 [16]: 4.46 µM (active)
IC50 [17]: > 43.8 µM (inactive)
IC50 [18]: 4.39 µM (active)
